Patent US20250129074A1, “CHIMERIC COMPOUND FOR TARGETED DEGRADATION OF ANDROGEN RECEPTOR PROTEIN, PREPARATION METHOD THEREFOR, AND MEDICAL USE THEREOF” (Jiangsu Hengrui Pharmaceuticals Co., Ltd., priority 2021, published 2025)

Experiments:
[1] = system: LNCaP cells; assay: Inhibition of LNCaP proliferation (CellTiter-Glo); assay type: cell-based; conditions: Homo sapiens, 144 h, 0.1 nM R1881, six days; for Emax: read-out: Max (maximum proliferation inhibition rate)
Description: The plate was incubated in a 37° C., 5% CO2 cell incubator for three days. […] A blank control cell well containing 0.5% DMSO and a cell-free vehicle control well were set up. The plate was incubated in a 37° C., 5% CO2 cell incubator for six days.

[2] = Pharmacokinetic evaluation in SD rats; conditions: both sexes, rat, in vivo, po, i.g., 2.0 mg/kg
Description: SD rats were used as test animals.
32 SD rats, provided by Vital River Laboratory Animal Co., Ltd., with an equal number of males and females, were evenly divided into 8 groups. The animals were fasted overnight and then intragastrically dosed.
The dose administered was 2.0 mg/kg, and the volume was 10.0 mL/kg.
The procedure starting from the blood collection to the centrifugation was performed under ice-bath conditions. Access to food was given 2 hours after administration.

[3] = target: T1, androgen receptor (AR) (Homo sapiens, UniProt P10275, T878A); assay: Degradation activity on androgen receptor in LNCaP cells (AR ELISA); assay type: cell-based; conditions: 0.1 nM R1881, 24 hours; for DC50: read-out: LNCaP DC50; for Dmax: read-out: Max (maximum AR degradation rate)
T1 construct: host or cells: LNCaP human prostate cancer cells
T1 sequence (P10275 1-920 T878A): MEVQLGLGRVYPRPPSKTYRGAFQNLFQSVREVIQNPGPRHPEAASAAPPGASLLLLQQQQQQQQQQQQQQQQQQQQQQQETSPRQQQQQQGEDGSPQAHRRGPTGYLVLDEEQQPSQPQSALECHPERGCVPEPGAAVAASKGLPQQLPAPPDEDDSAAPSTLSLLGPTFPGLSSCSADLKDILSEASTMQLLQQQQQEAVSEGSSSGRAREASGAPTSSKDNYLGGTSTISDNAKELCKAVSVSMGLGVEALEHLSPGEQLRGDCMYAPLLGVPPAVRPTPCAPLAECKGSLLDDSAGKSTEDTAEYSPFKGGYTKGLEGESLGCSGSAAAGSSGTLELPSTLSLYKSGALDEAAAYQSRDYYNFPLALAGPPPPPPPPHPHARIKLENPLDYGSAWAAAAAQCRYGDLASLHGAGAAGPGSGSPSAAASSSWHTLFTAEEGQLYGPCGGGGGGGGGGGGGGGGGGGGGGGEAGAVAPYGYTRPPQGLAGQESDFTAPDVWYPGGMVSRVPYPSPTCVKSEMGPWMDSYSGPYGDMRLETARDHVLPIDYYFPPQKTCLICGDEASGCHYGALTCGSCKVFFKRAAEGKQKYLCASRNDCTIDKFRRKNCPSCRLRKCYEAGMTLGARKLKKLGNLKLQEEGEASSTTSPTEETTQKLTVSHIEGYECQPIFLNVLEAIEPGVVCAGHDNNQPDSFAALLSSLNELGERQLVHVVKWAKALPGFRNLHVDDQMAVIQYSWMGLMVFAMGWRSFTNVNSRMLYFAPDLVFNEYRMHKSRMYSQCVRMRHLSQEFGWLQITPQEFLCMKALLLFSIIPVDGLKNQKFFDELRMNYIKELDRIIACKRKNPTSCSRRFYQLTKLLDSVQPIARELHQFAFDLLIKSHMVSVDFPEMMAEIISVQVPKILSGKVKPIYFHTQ
Description: The plate was incubated in a 37° C., 5% CO2 cell incubator for three days. […] A blank control cell well containing 0.5% DMSO was set up. The plate was incubated in a 37° C., 5% CO2 cell incubator for 24 hours. […] The lysate was well mixed by pipetting up and down and then centrifuged at 4000 rpm at 4° C. for 10 minutes. […] The plate was sealed and incubated in a 37° C. incubator for 1 hour. […] The plate was sealed and then incubated in a 37° C. incubator for 30 minutes.

Structure (SMILES) | IC50 [1] | Emax [1] | Vd/F ([2]; read-out: Apparent distribution volume Vz/F) | AUC(0-t) ([2]; read-out: Area under curve AUC0-t) | CL/F ([2]; read-out: Clearance rate CL/F) | half-life ([2]; read-out: Half-life T½ (converted)) | Cmax ([2]; read-out: Plasma concentration Cmax) | DC50 [3] | Dmax [3]
C[C@H]1CC2(CCN(c3ccc(C(=O)N4CCC(CN5CCN(c6cccc(NC7CCC(=O)NC7=O)c6)CC5)CC4)cc3)CC2)CN1c1ccc(C#N)c(Cl)c1 (stereo partly drawn) [Example 11, 2-Chloro-4-((3S)-8-(4-(4-((4-(3-((2,6-dioxopiperidin-3-yl)amino)phenyl)piperazin-1-yl)methyl)piperidine-1-carbonyl)phenyl)-3-methyl-2,8-diazaspiro[4.5]decan-2-yl)benzonitrile] | 82 nM | 68% | 34.8 L/kg | 644 ng·h/mL | 60.2 mL/min/kg | 6.75 h | 69.4 ng/mL | 7.3 nM | 98%
C[C@H]1CC2(CCN(c3ccc(C(=O)N4CCC5(CCC(N6CCN(c7ccc(N8CCC(=O)NC8=O)cc7)CC6)CC5)CC4)cc3)CC2)CN1c1ccc(C#N)c(Cl)c1 [Example 29, (S)-2-Chloro-4-(8-(4-(9-(4-(4-(2,4-dioxotetrahydropyrimidin-1(2H)-yl)phenyl)piperazin-1-yl)-3-azaspiro[5.5]undecane-3-carbonyl)phenyl)-3-methyl-2,8-diazaspiro[4.5]decan-2-yl)benzonitrile] | 81 nM | 45% | – | – | – | – | – | 12 nM | 93%
C[C@H]1CC2(CCN(c3ccc(C(=O)N4CCC5(CC4)CC(N4CCN(c6ccc(N7CCC(=O)NC7=O)cc6)CC4)C5)cc3F)CC2)CN1c1ccc(C#N)c(Cl)c1 [Example 30, (S)-2-Chloro-4-(8-(4-(2-(4-(4-(2,4-dioxotetrahydropyrimidin-1(2H)-yl)phenyl)piperazin-1-yl)-7-azaspiro[3.5]nonane-7-carbonyl)-2-fluorophenyl)-3-methyl-2,8-diazaspiro[4.5]decan-2-yl)benzonitrile] | 7.2 nM | 52% | – | – | – | – | – | 4.2 nM | 96%
C[C@H]1CC2(CCN(c3ccc(C(=O)N4CCC5(CC4)CC(N4CCN(c6ccc(N7CCC(=O)NC7=O)cc6)CC4)C5)c(F)c3)CC2)CN1c1ccc(C#N)c(Cl)c1 [Example 31, (S)-2-Chloro-4-(8-(4-(2-(4-(4-(2,4-dioxotetrahydropyrimidin-1(2H)-yl)phenyl)piperazin-1-yl)-7-azaspiro[3.5]nonane-7-carbonyl)-3-fluorophenyl)-3-methyl-2,8-diazaspiro[4.5]decan-2-yl)benzonitrile] | 12 nM | 57% | – | – | – | – | – | 8.7 nM | 94%
C[C@H]1CC2(CCN(c3ccc(C(=O)N4CCC5(CC4)CC(N4CCN(c6ccc(N7CCC(=O)NC7=O)cc6)CC4)C5)nc3)CC2)CN1c1ccc(C#N)c(Cl)c1 [Example 32, (S)-2-Chloro-4-(8-(6-(2-(4-(4-(2,4-dioxotetrahydropyrimidin-1(2H)-yl)phenyl)piperazin-1-yl)-7-azaspiro[3.5]nonane-7-carbonyl)pyridin-3-yl)-3-methyl-2,8-diazaspiro[4.5]decan-2-yl)benzonitrile] | 3.1 nM | 63% | – | – | – | – | – | 1 nM | 95%
C[C@H]1CC2(CCN(c3ccc(C(=O)N4CCC5(CC4)CC(N4CCN(c6ccc(N7CCC(=O)NC7=O)cc6)CC4)C5)cn3)CC2)CN1c1ccc(C#N)c(Cl)c1 [Example 33, (S)-2-Chloro-4-(8-(5-(2-(4-(4-(2,4-dioxotetrahydropyrimidin-1(2H)-yl)phenyl)piperazin-1-yl)-7-azaspiro[3.5]nonane-7-carbonyl)pyridin-2-yl)-3-methyl-2,8-diazaspiro[4.5]decan-2-yl]benzonitrile] | 3.5 nM | 58% | – | – | – | – | – | 2.5 nM | 95%
C[C@H]1CC2(CCN(c3ccc(C(=O)N4CCC5(CC4)CC(N4CCN(c6ccc(C7CCC(=O)NC7=O)cc6)CC4)C5)cc3)CC2)CN1c1ccc(C#N)c(Cl)c1 (stereo partly drawn) [Example 34, 2-Chloro-4-((3S)-8-(4-(2-(4-(4-(2,6-dioxopiperidin-3-yl)phenyl)piperazin-1-yl)-7-azaspiro[3.5]nonane-7-carbonyl)phenyl)-3-methyl-2,8-diazaspiro[4.5]decan-2-yl)benzonitrile] | 12 nM | 60% | – | – | – | – | – | 5 nM | 96%
C[C@H]1CC2(CCN(c3ccc(C(=O)N4CCC5(CC4)CC(N4CCN(c6cccc(N7CCC(=O)NC7=O)c6)CC4)C5)cc3)CC2)CN1c1ccc(C#N)c(Cl)c1 [Example 35, (S)-2-Chloro-4-(8-(4-(2-(4-(3-(2,4-dioxotetrahydropyrimidin-1(2H)-yl)phenyl)piperazin-1-yl)-7-azaspiro[3.5]nonane-7-carbonyl)phenyl)-3-methyl-2,8-diazaspiro[4.5]decan-2-yl)benzonitrile] | 31 nM | 57% | – | – | – | – | – | 5.2 nM | 88%
C[C@H]1CC2(CCN(c3ccc(C(=O)N4CCC5(CC4)CC(N4CCN(c6cccc(NC7CCC(=O)NC7=O)c6)CC4)C5)cc3F)CC2)CN1c1ccc(C#N)c(Cl)c1 (stereo partly drawn) [Example 36, 2-Chloro-4-((3S)-8-(4-(2-(4-(3-((2,6-dioxopiperidin-3-yl)amino)phenyl)piperazin-1-yl)-7-azaspiro[3.5]nonane-7-carbonyl)-2-fluorophenyl)-3-methyl-2,8-diazaspiro[4.5]decan-2-yl)benzonitrile] | 35 nM | 57% | – | – | – | – | – | 5.3 nM | 97%
C[C@H]1CC2(CCN(c3ccc(C(=O)N4CCN(CC5CCN(c6cccc(NC7CCC(=O)NC7=O)c6)CC5)CC4)cc3)CC2)CN1c1ccc(C#N)c(Cl)c1 (stereo partly drawn) [Example 37, 2-Chloro-4-((3S)-8-(4-(4-((1-(3-((2,6-dioxopiperidin-3-yl)amino)phenyl)piperidin-4-yl)methyl)piperazine-1-carbonyl)phenyl)-3-methyl-2,8-diazaspiro[4.5]decan-2-yl)benzonitrile] | 125 nM | 73% | – | – | – | – | – | 7.6 nM | 97%
C[C@H]1CC2(CCN(c3ccc(C(=O)N4CCC(CN5CCN(c6cccc(NC7CCC(=O)NC7=O)c6)CC5)CC4)cc3)CC2)CN1c1ccc(C#N)c(C(F)(F)F)c1 (stereo partly drawn) [Example 41, 4-((3S)-8-(4-(4-((4-(3-((2,6-Dioxopiperidin-3-yl)amino)phenyl)piperazin-1-yl)methyl)piperidine-1-carbonyl)phenyl)-3-methyl-2,8-diazaspiro[4.5]decan-2-yl)-2-(trifluoromethyl)benzonitrile] | 98 nM | 56% | – | – | – | – | – | 17.1 nM | 96%
C[C@H]1CC2(CCN(c3ccc(C(=O)N4CCN(CC(=O)Nc5cccc(NC6CCC(=O)NC6=O)c5)CC4)cc3)CC2)CN1c1ccc(C#N)c(Cl)c1 (stereo partly drawn) [Example 42, 2-(4-(4-((S)-2-(3-Chloro-4-cyanophenyl)-3-methyl-2,8-diazaspiro[4.5]decan-8-yl)benzoyl)piperazin-1-yl)-N-(3-((2,6-dioxopiperidin-3-yl)amino)phenyl)acetamide] | 39 nM | 50% | – | – | – | – | – | 4.2 nM | 90%
